Data as given in US20050209157A1, “Short bioactive peptides and methods for their use” (priority 2001, published 2005).
Residues, ends and D or L forms follow the SMILES beside them. No end group written: not given here.

How the values were obtained:
[1] = system: Pseudomonas aeruginosa ATCC 9027; test: Antimicrobial assay I, MIC by OD measurement; assay type: cell-based; settings: 37° C. for 24 hours, absorbance 620 nm
[2] = system: Staphylococcus aureus ATCC 6538; test: Antimicrobial assay I, MIC by OD measurement; assay type: cell-based; settings: 37° C. for 24 hours, absorbance 620 nm
[3] = system: human red blood cells (RBC); test: in vitro; assay type: cell-based; settings: hemolytic assay, concentration at 50% hemolysis, 1 hour at 37° C.
[4] = system: yeast (Saccharomyces cerevisiae); test: Antimicrobial assay I, yeast assay in RPMI 1640; assay type: cell-based; settings: RPMI 1640 media
MCF7 = test: Anti-cancer assay, MTT, LD50; assay type: cell-based; settings: MCF7 breast adenocarcinoma line, MTT, 24 hours with peptide
Excerpt: (§1) Numbers are LD50 values (μg/mL).

PC3 = test: Anti-cancer assay, MTT, LD50; assay type: cell-based; settings: 24 hours with peptide, prostate adenocarcinoma
Excerpt: as §1

BMKC = test: Anti-cancer assay, MTT, LD50; assay type: cell-based; settings: BMKC cloned melanoma line, 24 hours with peptide
Excerpt: as §1

SW480 = test: Anti-cancer assay, MTT, LD50; assay type: cell-based; settings: SW480 colon adenocarcinoma line, 24 hours with peptide
Excerpt: as §1

HeLaS3 = test: Anti-cancer assay, MTT, LD50; assay type: cell-based; settings: 24 hours with peptide, cervical carcinoma
Excerpt: as §1

H1299 = test: Anti-cancer assay, MTT, LD50; assay type: cell-based; settings: 24 hours with peptide, lung large cell carcinoma
Excerpt: as §1

WI38 = settings: MTT, 24 hours with peptide; for WI38 LD50: normal fibroblast line; for LD50 WI38: WI38 normal lung fibroblast line

## FAKKLAKKAKLAKKL-NH2 [P77]
[1]
  paerug9027 (MIC): 100 mg/L
[2]
  staph6538 (MIC): 200 mg/L
[3]
  LD50: > (> indicates greater than 1000)
[4]
  yeast (MIC or MFC): 200 mg/L
MCF7
  LD50 MCF7: > (> indicates greater than 1000)
PC3
  PC3 LD50: > (> indicates greater than 1000)
BMKC
  LD50 BMKC: 125 µg/mL
SW480
  LD50 SW480: > (> indicates greater than 1000)
HeLaS3
  HeLaS3 LD50: > (> indicates greater than 1000)
H1299
  H1299 LD50: > (> indicates greater than 1000)
WI38
  WI38 LD50: > (> indicates greater than 1000)
  LD50 WI38: > (> indicates greater than 1000)

## KAKLAKKALAKLL-NH2 [P149]
[1]
  paerug9027 (MIC): 100 mg/L
[2]
  staph6538 (MIC): 50 mg/L
[3]
  LD50: > (> indicates greater than 1000)
[4]
  yeast (MIC or MFC): 200 mg/L
MCF7
  LD50 MCF7: > (> indicates greater than 1000)
PC3
  PC3 LD50: > (> indicates greater than 1000)
BMKC
  LD50 BMKC: > (> indicates greater than 1000)
SW480
  LD50 SW480: > (> indicates greater than 1000)
HeLaS3
  HeLaS3 LD50: > (> indicates greater than 1000)
H1299
  H1299 LD50: > (> indicates greater than 1000)
WI38
  WI38 LD50: > (> indicates greater than 1000)
  LD50 WI38: > (> indicates greater than 1000)

## FAKLLAKAFKKAL-NH2 [P114, FAKLLAKAFKKAL-NH2]
[1]
  paerug9027 (MIC): 15 mg/L
[2]
  staph6538 (MIC): 50 mg/L
[3]
  LD50: > (> indicates greater than 1000)
[4]
  yeast (MIC or MFC): 100 mg/L
MCF7
  LD50 MCF7: 730 µg/mL
PC3
  PC3 LD50: > (> indicates greater than 1000)
BMKC
  LD50 BMKC: > (> indicates greater than 1000)
SW480
  LD50 SW480: > (> indicates greater than 1000)
HeLaS3
  HeLaS3 LD50: > (> indicates greater than 1000)
H1299
  H1299 LD50: > (> indicates greater than 1000)
WI38
  WI38 LD50: > (> indicates greater than 1000)
  LD50 WI38: > (> indicates greater than 1000)

## FAKKALKALKKL-NH2 [P47]
[1]
  paerug9027 (MIC): 100 mg/L
[2]
  staph6538 (MIC): 200 mg/L
[3]
  LD50: > (> indicates greater than 1000)
[4]
  yeast (MIC or MFC): 50 mg/L
MCF7
  LD50 MCF7: 575 µg/mL
PC3
  PC3 LD50: > (> indicates greater than 1000)
BMKC
  LD50 BMKC: 700 µg/mL
SW480
  LD50 SW480: > (> indicates greater than 1000)
HeLaS3
  HeLaS3 LD50: > (> indicates greater than 1000)
H1299
  H1299 LD50: > (> indicates greater than 1000)
WI38
  WI38 LD50: > (> indicates greater than 1000)
  LD50 WI38: > (> indicates greater than 1000)

## FAKLLAKLAKAKG-NH2 [P96]
[1]
  paerug9027 (MIC): > (> indicates greater than 200 μg/mL)
[2]
  staph6538 (MIC): > (> indicates greater than 200 μg/mL)
[3]
  LD50: > (> indicates greater than 1000)
[4]
  yeast (MIC or MFC): > (> indicates greater than 200 μg/mL)
MCF7
  LD50 MCF7: > (> indicates greater than 1000)
PC3
  PC3 LD50: > (> indicates greater than 1000)
BMKC
  LD50 BMKC: > (> indicates greater than 1000)
SW480
  LD50 SW480: > (> indicates greater than 1000)
HeLaS3
  HeLaS3 LD50: > (> indicates greater than 1000)
H1299
  H1299 LD50: > (> indicates greater than 1000)
WI38
  WI38 LD50: > (> indicates greater than 1000)
  LD50 WI38: > (> indicates greater than 1000)

## FAFAKIIAKIAKKII-NH2 [P140]
[1]
  paerug9027 (MIC): > (> indicates greater than 200 μg/mL)
[2]
  staph6538 (MIC): > (> indicates greater than 200 μg/mL)
[3]
  LD50: > (> indicates greater than 1000)
[4]
  yeast (MIC or MFC): > (> indicates greater than 200 μg/mL)
MCF7
  LD50 MCF7: > (> indicates greater than 1000)
PC3
  PC3 LD50: > (> indicates greater than 1000)
BMKC
  LD50 BMKC: > (> indicates greater than 1000)
SW480
  LD50 SW480: > (> indicates greater than 1000)
HeLaS3
  HeLaS3 LD50: 285 µg/mL
H1299
  H1299 LD50: > (> indicates greater than 1000)
WI38
  WI38 LD50: > (> indicates greater than 1000)
  LD50 WI38: > (> indicates greater than 1000)

## FAKLLAKLAKK-NH2 [P151]
[1]
  paerug9027 (MIC): > (> indicates greater than 200 μg/mL)
[2]
  staph6538 (MIC): > (> indicates greater than 200 μg/mL)
[3]
  LD50: > (> indicates greater than 1000)
[4]
  yeast (MIC or MFC): 200 mg/L
MCF7
  LD50 MCF7: > (> indicates greater than 1000)
PC3
  PC3 LD50: > (> indicates greater than 1000)
BMKC
  LD50 BMKC: > (> indicates greater than 1000)
SW480
  LD50 SW480: > (> indicates greater than 1000)
HeLaS3
  HeLaS3 LD50: > (> indicates greater than 1000)
H1299
  H1299 LD50: > (> indicates greater than 1000)
WI38
  WI38 LD50: > (> indicates greater than 1000)
  LD50 WI38: > (> indicates greater than 1000)

## FALAKALKKAL-NH2 [P166, FALAKALKKAL-NH2]
[1]
  paerug9027 (MIC): > (> indicates greater than 200 μg/mL)
[2]
  staph6538 (MIC): > (> indicates greater than 200 μg/mL)
[3]
  LD50: > (> indicates greater than 1000)
[4]
  yeast (MIC or MFC): > (> indicates greater than 200 μg/mL)
MCF7
  LD50 MCF7: > (> indicates greater than 1000)
PC3
  PC3 LD50: > (> indicates greater than 1000)
BMKC
  LD50 BMKC: > (> indicates greater than 1000)
SW480
  LD50 SW480: > (> indicates greater than 1000)
HeLaS3
  HeLaS3 LD50: > (> indicates greater than 1000)
H1299
  H1299 LD50: > (> indicates greater than 1000)
WI38
  WI38 LD50: > (> indicates greater than 1000)
  LD50 WI38: > (> indicates greater than 1000)

## FAKKLAKLAKKL-NH2 [P106]
[1]
  paerug9027 (MIC): 25 mg/L
[2]
  staph6538 (MIC): 100 mg/L
[3]
  LD50: > (> indicates greater than 1000)
[4]
  yeast (MIC or MFC): 100 mg/L
MCF7
  LD50 MCF7: 620 µg/mL
PC3
  PC3 LD50: > (> indicates greater than 1000)
BMKC
  LD50 BMKC: 690 µg/mL
SW480
  LD50 SW480: 570 µg/mL
HeLaS3
  HeLaS3 LD50: 700 µg/mL
H1299
  H1299 LD50: 920 µg/mL
WI38
  WI38 LD50: > (> indicates greater than 1000)
  LD50 WI38: > (> indicates greater than 1000)

## KWKLF-NH2 [P131, KWKLF-NH2]
[1]
  paerug9027 (MIC): 10 mg/L
[2]
  staph6538 (MIC): 25 mg/L
[3]
  LD50: > (> indicates greater than 1000)
[4]
  yeast (MIC or MFC): 100 mg/L
MCF7
  LD50 MCF7: 600 µg/mL
PC3
  PC3 LD50: > (> indicates greater than 1000)
BMKC
  LD50 BMKC: > (> indicates greater than 1000)
SW480
  LD50 SW480: 555 µg/mL
HeLaS3
  HeLaS3 LD50: > (> indicates greater than 1000)
H1299
  H1299 LD50: > (> indicates greater than 1000)
WI38
  WI38 LD50: > (> indicates greater than 1000)
  LD50 WI38: > (> indicates greater than 1000)

## FGKGIGKVGKKLL-NH2 [P132]
[1]
  paerug9027 (MIC): 100 mg/L
[2]
  staph6538 (MIC): > (> indicates greater than 200 μg/mL)
[3]
  LD50: > (> indicates greater than 1000)
[4]
  yeast (MIC or MFC): > (> indicates greater than 200 μg/mL)
MCF7
  LD50 MCF7: > (> indicates greater than 1000)
PC3
  PC3 LD50: > (> indicates greater than 1000)
BMKC
  LD50 BMKC: > (> indicates greater than 1000)
SW480
  LD50 SW480: > (> indicates greater than 1000)
HeLaS3
  HeLaS3 LD50: > (> indicates greater than 1000)
H1299
  H1299 LD50: > (> indicates greater than 1000)
WI38
  WI38 LD50: > (> indicates greater than 1000)
  LD50 WI38: > (> indicates greater than 1000)

## FAKLFAKAFKKAL-NH2 [P117, FAKLFAKAFKKAL-NH2]
[1]
  paerug9027 (MIC): 200 mg/L
[2]
  staph6538 (MIC): 100 mg/L
[3]
  LD50: > (> indicates greater than 1000)
[4]
  yeast (MIC or MFC): 200 mg/L
MCF7
  LD50 MCF7: > (> indicates greater than 1000)
PC3
  PC3 LD50: > (> indicates greater than 1000)
BMKC
  LD50 BMKC: > (> indicates greater than 1000)
SW480
  LD50 SW480: > (> indicates greater than 1000)
HeLaS3
  HeLaS3 LD50: > (> indicates greater than 1000)
H1299
  H1299 LD50: > (> indicates greater than 1000)
WI38
  WI38 LD50: > (> indicates greater than 1000)
  LD50 WI38: > (> indicates greater than 1000)

## CC(C)C[C@H](NC(=O)[C@H](C)NC(=O)[C@@H](N)Cc1ccccc1)C(=O)N[C@@H](C)C(N)=O [P183, FALA-NH2] (H-FALA-NH2; N-terminus assumed)
[1]
  paerug9027 (MIC): 100 mg/L
[2]
  staph6538 (MIC): 200 mg/L
[3]
  LD50: > (> indicates greater than 1000)
[4]
  yeast (MIC or MFC): 200 mg/L
MCF7
  LD50 MCF7: > (> indicates greater than 1000)
PC3
  PC3 LD50: > (> indicates greater than 1000)
BMKC
  LD50 BMKC: > (> indicates greater than 1000)
SW480
  LD50 SW480: > (> indicates greater than 1000)
HeLaS3
  HeLaS3 LD50: > (> indicates greater than 1000)
H1299
  H1299 LD50: > (> indicates greater than 1000)
WI38
  WI38 LD50: > (> indicates greater than 1000)
  LD50 WI38: > (> indicates greater than 1000)

## FAKKLKKLAKKL-NH2 [P79]
[1]
  paerug9027 (MIC): 200 mg/L
[2]
  staph6538 (MIC): 100 mg/L
[3]
  LD50: > (> indicates greater than 1000)
[4]
  yeast (MIC or MFC): 100 mg/L
MCF7
  LD50 MCF7: 540 µg/mL
PC3
  PC3 LD50: > (> indicates greater than 1000)
BMKC
  LD50 BMKC: 830 µg/mL
SW480
  LD50 SW480: > (> indicates greater than 1000)
HeLaS3
  HeLaS3 LD50: > (> indicates greater than 1000)
H1299
  H1299 LD50: > (> indicates greater than 1000)
WI38
  WI38 LD50: > (> indicates greater than 1000)
  LD50 WI38: > (> indicates greater than 1000)
